According to patent US20220362386A1, “LIQUID COMPOSITIONS COMPRISING A LEVODOPA AMINO ACID CONJUGATE AND USES THEREOF” (NeuroDerm, Ltd., priority 2019, published 2022):
Structures can show the parent of a compound that is named as a salt. Where two headings read alike, the source gives them in different places. Non-standard residues stand in square brackets, D forms with d. Residues, ends and D or L forms follow the SMILES beside them. Dopa = N[C@@H](Cc1ccc(O)c(O)c1)C(=O)O

Assays:
[1] = Human blood stability test; format: in vitro ADME; set-up: key: slope of % decrease of remaining compound over time; higher = faster metabolism; conditions: slope of the percentage decrease of remaining compound; substrate 10 μM; 0-60 minutes
Protocol: The stability of several LDAA compounds in human blood was tested. The substrate concentration was 10 μM and the incubation time 0, 5, 15, 30 and 60 minutes.
The results are described in Table 19, wherein the results describe the Ke, i.e., the slope of the percentage decrease of the remaining amount of the compound, measured at each of the above time points, such that the higher the Ke the faster the metabolism.

[2] = Protein binding, equilibrium dialysis method; format: in vitro ADME, human; conditions: human, human plasma, pH 7.4, 1.0E-05M
Protocol: (§1) The protein binding values of various LDAA compounds in their TFA salt form (10^−5M) were tested in human plasma. The equilibrium dialysis technique was used to separate the fraction of the test compound that was unbound from the fraction of the test compound that bound to proteins during the test. The test was performed on 96-well plates in a dialysis block constructed from Teflon™.
(§2) The protein containing matrix used was human plasma, wherein the assay matrix was human serum albumin and alpha-1 acid glycoprotein. The protein matrix was spiked with each test compound at 10 μM (by default, n=2) with a final DMSO concentration of 1%. The dialysate compartment is loaded with phosphate buffered saline (PBS, pH 7.4), and the sample compartment was loaded with an equal volume of the spiked protein matrix. The dialysis plate was then sealed and incubated at 37° C. for 4 h.
(§3) Following the incubation, samples were taken from each compartment, diluted with PBS followed by the addition of acetonitrile, after which the samples were centrifuged. The supernatants were collected and analyzed by HPLC-MS/MS. The HPLC tests included a binary LC pump with an autosampler, a C18 column (2×20 mm), and gradient elution. The HPLC conditions were adjusted when necessary.
(§4) A control sample (n=2) was prepared from the spiked protein matrix in the same manner; however, no dialysis was performed on the control. It is noted that the control sample served as the bases for the recovery determination.
(§5) Acebutolol, quinidine, and warfarin were used in each assay as reference compounds, wherein it is known that those reference compounds provide low, medium and high human plasma protein binding values, respectively.
(§6) The % of the tested compound that is bound to proteins and the recovery values were calculated as follows:
(§7) Protein binding (%)=100×(Areap−Areab)/Areap
(§8) Recovery (%)=100×(Areap−Areab)/Areac
(§9) The determination of the recovery % serves as an indicator of reliability of the calculated protein binding value. […] This is most likely due to non-specific binding or degradation of the test compound. It is noted that a recovery of above 60% is considered to be reliable, while under 60% recovery, the results of the test are considered to be unreliable.

human plasma [3] = experiment: Protein binding, equilibrium dialysis method; format: in vitro ADME; conditions: 1.0E-05M; 37° C., 4 h
Protocol: as §1, §2, §3, §4, §5, §6, §7, §8, §9

in vitro = conditions: human
Protocol: Caco-2 cells are human intestinal epithelial cells derived from a colorectal adenocarcinoma.
The assays are performed in both the apical to basolateral (A-B) and the B-A direction. The test compound is prepared at 10 μM in HBSS-HEPES (pH 7.4) with a final DMSO concentration of 1%. The working solution is centrifuged, and the supernatant is added to the donor side. The assay plate is incubated at 37° C. with gentle shaking for 60 min or 40 min for the A-B or B-A assay, respectively. For Pgp substrate assessment, the assays are run with and without 100 μM verapamil on both the A and B sides. For BCRP substrate assessment, the assays are run with and without 10 μM Ko143 on both the A and B sides. For MRP2 substrate assessment, the assays are run with and without 100 μM MK571 on both the A and B sides. Samples are aliquoted from the donor side at time zero and the end point, and from the receiver side at the end point.
Propranolol (highly permeable), labetalol (moderately permeable), ranitidine (poorly permeable), and colchicine (P-glycoprotein substrate), estrone-3-sulfate (BCRP substrate), or CDCF (MRP2 substrate) are included in each assay.
Samples are analyzed by HPLC-MS/MS using selected reaction monitoring. The HPLC system consists of a binary LC pump with an autosampler, a C-18 column, and a gradient. Conditions may be adjusted when necessary.
Fluorescein permeability is assessed in the A-B direction at pH 7.4 on both sides after the permeability assay with the test compound. The cell monolayer with a fluorescein permeability of less than 1.5×10−6 cm/s is considered intact.
The apparent permeability coefficient (Papp) of the test compound and its recovery are calculated as follows: […]
A is the surface area of the cell monolayer (0.11 cm^2). C is concentration of the test compound, expressed as peak area. D denotes donor and R is receiver. 0, mid, and end denote time zero, mid-point, and end of the incubation. Δt is the incubation time. V is the volume of the donor or receiver.
The permeability capabilities of the several LDAA compounds, in their TFA salt form, were determined using the Caco-2 B-A method.

[4] = Protein binding, solid phase extraction (SPE) method; format: in vitro ADME, human; conditions: human, human plasma, 1.0E−05M, SPE sample preparation
Protocol: (§10) A solid phase extraction (SPE) method was used to prepare samples for several compounds in the plasma protein binding assay. The following SPE protocols were followed:
(§11) Sorbent: Waters Oasis MCX 96—well MicroElution Plate—Cat #186001830BA Sample: 200 μL of plasma spiked at 10 μM with test compound. Sample was diluted 1:1 with 4% phosphoric acid in water and mixed for 15 minutes 1) Place Oasis plate on vacuum manifold and set vacuum to 5″ Hg; 2) Condition with 200 μL methanol; 3) Equilibrate with 200 μL water; 4) Load dilute plasma sample; 5) Wash with 200 μL 2% formic acid in water; 6) Wash with 400 μL methanol; and 7) Elute with 100 μL 5% NH4OH in methanol.
as §11, with “MAX 96-well” for “MCX 96—well”, “plate—Cat #186001829” for “Plate—Cat #186001830BA”, “5% NH4OH” for “2% formic acid”, “2% formic acid” for “5% NH4OH”

human plasma [5] = experiment: as above; format: in vitro ADME; conditions: 1.0E−05M; SPE sample preparation
Protocol: as §10, §11
as §11, with “MAX 96-well” for “MCX 96—well”, “plate—Cat #186001829” for “Plate—Cat #186001830BA”, “5% NH4OH” for “2% formic acid”, “2% formic acid” for “5% NH4OH”

[6] = Caco-2, pH 7.4, Percent Recovery 1st
[7] = Caco-2, pH 7.4, Percent Recovery 2nd
[8] = Caco-2, pH 7.4, Percent Recovery Mean
[9] = Caco-2, pH 7.4, Permeability 1st
[10] = Caco-2, pH 7.4, Permeability 2nd
[11] = Caco-2, pH 7.4, Permeability Mean

SMILES | Ke [1] | recovery at 4 h, 10 μM ([2]; read-out: % Recovery 1st) [%] | recovery at 4 h, 10 μM ([2]; read-out: % Recovery 2nd) [%] | recovery at 4 h, 10 μM ([2]; read-out: % Recovery Mean) [%] | % Protein Bound 1st (human plasma [3]) [%] | % Protein Bound 2nd (human plasma [3]) [%] | % Protein Bound Mean (human plasma [3]) [%] | recovery at 40 min, 10 μM (in vitro; [6]) [%] | recovery at 40 min, 10 μM (in vitro; [7]) [%] | recovery at 40 min, 10 μM (in vitro; [8]) [%] | Papp B→A at 40 min, 10 μM (in vitro; [9]) [×10⁻⁶ cm/s] | Papp B→A at 40 min, 10 μM (in vitro; [10]) [×10⁻⁶ cm/s] | Papp B→A at 40 min, 10 μM (in vitro; [11]) [×10⁻⁶ cm/s] | recovery at 10 μM ([4]; read-out: % Recovery 1st) [%] | recovery at 10 μM ([4]; read-out: % Recovery 2nd) [%] | recovery at 10 μM ([4]; read-out: % Recovery Mean) [%] | % Protein Bound 1st (human plasma [5]) [%] | % Protein Bound Mean (human plasma [5]) [%] | % Protein Bound 2nd (human plasma [5]) [%]
N[C@@H](CSC[C@@H](NC(=O)[C@@H](N)Cc1ccc(O)c(O)c1)C(=O)O)C(=O)O (single isomer, unassigned; peak 1) [LD-LA1 TFA salt, Levodopa Lanthionine Peak 1 TFA Salt] | −0.011 | 75 | 71 | 73 | 24.4 | 27.8 | 26 | 80 | 86 | 83 | 0.28 | 0.22 | 0.3 |  |  |  |  |  | 
N[C@@H](CSC[C@H](NC(=O)[C@@H](N)Cc1ccc(O)c(O)c1)C(=O)O)C(=O)O (single isomer, unassigned; peak 2) [LD-LA2 TFA salt, Levodopa Lanthionine Peak 2 TFA Salt] | 0.0128 |  |  |  |  |  |  | 79 | 69 | 74 | 13 | 13.6 | 13.3 | 39 | 46 | 43 | 18.7 | 18.7 | 
N[C@@H](Cc1ccc(O)c(O)c1)C(=O)O [LD (control), L-3,4-dihydroxyphenylalanine, reference compound] |  |  |  |  |  |  |  | 101 | 92 | 96 | 0.38 | 0.41 | < 0.4 | 59 | 78 | 68 | 30.4 | 25 | 20.2
N=C(N)NCCC[C@H](NC(=O)[C@@H](N)Cc1ccc(O)c(O)c1)C(=O)O [LD-Arg TFA salt, Levodopa Arginine TFA Salt] | 0.0919 | 6 | 5 | 6 | 44.1 | 26.4 | 35 | 82 | 89 | 85 | 0.03 | 0.02 | < 0.03 | 79 | 79 | 79 | 91.5 | 91 | 91.2
NC(=O)C[C@H](NC(=O)[C@@H](N)Cc1ccc(O)c(O)c1)C(=O)O [LD-Asn TFA salt, Levodopa Asparagine TFA Salt] (H-[Dopa]-Asn-OH) | 0.0038 |  |  |  |  |  |  | 85 | 84 | 85 | 0.42 | 0.39 | 0.4 |  |  |  |  |  | 
N[C@@H](Cc1ccc(O)c(O)c1)C(=O)N[C@@H](CC(=O)O)C(=O)O [LD-Asp TFA salt, Levodopa Aspartic Acid] (H-[Dopa]-Asp-OH) | 0.0014 | 105 | 108 | 107 | 99.1 | 99.4 | 99 |  |  |  |  |  |  | 55 | 64 | 60 | 47.8 | 41 | 34.1
NC(=O)CC[C@H](NC(=O)[C@@H](N)Cc1ccc(O)c(O)c1)C(=O)O [LD-Gln TFA salt, Levodopa Glutamine TFA Salt] (H-[Dopa]-Gln-OH) |  | 77 | 78 | 78 | 99.7 | 99.8 | 99 | 81 | 92 | 87 | 1.01 | 0.79 | 0.9 |  |  |  |  |  | 
N[C@@H](Cc1ccc(O)c(O)c1)C(=O)N[C@@H](Cc1c[nH]c2ccccc12)C(=O)O [LD-Trp TFA salt, Levodopa Tryptophan] (H-[Dopa]-Trp-OH) |  | 68 | 74 | 71 | 54.8 | 66 | 60 | 71 | 82 | 77 | 0.01 | 0.01 | < 0.01 |  |  |  |  |  | 
N[C@@H](Cc1ccc(O)c(O)c1)C(=O)N[C@@H](Cc1ccc(O)cc1)C(=O)O [LD-Tyr TFA salt, Levodopa Tyrosine TFA Salt] (H-[Dopa]-Tyr-OH) | 0.0426 |  |  |  |  |  |  | 82 | 97 | 89 | 0.01 | 0.01 | < 0.01 | 64 | 72 | 68 | 11 | 22 | 32.5
